What all share (format): physicochemical
Data set [1] is described as follows: Methanol content (residual methanol) measured using a gas chromatograph. To be noted: value includes methanol adhering to the crystal surface. The protocol: Analysis Example Using Gas Chromatograph
Used equipment: GC-2014 (manufactured by Shimadzu Corporation)
Column: AGILENT J&W DB-WAX 30 m×0.535 mm×1.00 μm (Agilent Technologies, Inc.)
Column temperature: 200° C.
By analysis using HPLC, it was confirmed that the crystal was a crystal of eucomic acid. […] The methanol content is a value including methanol adhering to the crystal surface. The methanol content in the crystal except for the methanol adhering to the crystal surface was 9.0 wt %. It was considered from this that the crystal was a mono-methanol solvate crystal of eucomic acid.
Subsequently, the obtained methanol solvate crystal of eucomic acid was heated and dried at 100° C. for 9 hours at normal pressure. By analysis using HPLC, it was confirmed that the crystal after heating and drying was a crystal of eucomic acid. […] As a result of measuring residual methanol using a gas chromatograph, a methanol content of the crystal was 0.14 wt %. It was found from the above that the crystal was a non-solvate crystal of eucomic acid.

Data set [2] is described as follows: Angle of repose measurement (Multi Tester MT-1001T). To be noted: sieve 1.18 mm, vibration width 0.5 to 0.6 mm; mean of three sites. The source says:
The angle of repose refers to an angle formed by a generating line of a cone formed with a powder when the powder is allowed to gently fall onto the horizontal plane through a kind of funnel and a horizontal plane.
The angle of repose can be measured using Multi Tester MT-1001T (manufactured by Seishin Enterprise Co, Ltd.) in accordance with the accompanying manual according to the following measurement example.
Measurement Example of Angle of Repose
Used equipment: multi-tester MT-1001T type (manufactured by Seishin Enterprise Co., Ud.)
Vibration width: 0.5 to 0.6 mm
Measurement method: Crystals are allowed to fall by passing through a sieve of 1.18 mm that is vibrated with a width of 0.5 to 0.6 mm, and are deposited on an angle-of-repose table (part number: MT-1029). The angle-of-repose table is rotated without being given vibration, angles are read at three sites, and an arithmetic mean value of the angles is determined to be the angle of repose.

A short description of data set [3]: Uniformity coefficient from particle size distribution measurement. To be noted: ratio of 60% passing to 10% passing particle diameter; closer to 1 = higher fluidity. The source says: The uniformity coefficient is an index representing fluidity of the powder, and refers to a ratio obtained by dividing a particle diameter through which the powder in an amount of 60% passes by a particle diameter through which the powder in an amount of 10% passes on a cumulative particle diameter distribution curve measured by particle size distribution measurement or sieve division. The closer the value of the uniformity coefficient is to 1, the higher the fluidity is.
The uniformity coefficient can be measured in accordance with the accompanying manual using, for example, a particle size distribution measuring device LS 13 32 (manufactured by Beckman Coulter, Inc.).

The nature of data set [4]: Water content by Karl Fischer method. Conditions: crystal after heating and drying at 100° C. for 9 hours. As for the experimental part:
Measurement Example by Karl Fischer Method
Used equipment: AQV-2200 (HIRANUMA SANGYO Co., Ltd.)
Measurement method: The water content in the crystal is measured in accordance with instructions for use of AQV-2200 (HIRANUMA SANGYO Co., Ltd.)

The nature of data set [5]: Methanol content in crystal, except methanol adhering to the crystal surface, by thermal analysis. To be noted: excluding surface-adhering methanol. The text has this:
The fact that the methanol solvate crystal of eucomic acid is a mono-methanol solvate crystal can be confirmed by the fact that a methanol content in the crystal except for methanol adhering to a crystal surface thereof is generally 7.0 to 14.0 wt %, preferably 9.0 to 11.0 wt %.
The methanol content in the crystal except for the methanol adhering to the crystal surface can be measured by, for example, thermal analysis described in the following measurement example.
Measurement Example of Methanol Content in Crystal by Thermal Analysis
Used equipment: EXSTAR 6000 TG/DTA 6200 (manufactured by Seiko Instruments Inc.)
Measurement conditions: Temperature rises from 20° C. to 30° C. at 20° C./min→Hold for 15 minutes at 30° C.→Temperature rises from 30° C. to 250° C. at 5° C./min
Nitrogen flow rate: 300 mL/min

Take `O=C(O)C[C@](O)(Cc1ccc(O)cc1)C(=O)O` [Non-solvate crystal, (R)-2-hydroxy-2-[(4-hydroxyphenyl)methyl]butanedioic acid]: the Methanol content in data set [1] and in data set [1] (listed as non-solvate crystal of eucomic acid) was 0.14 wt % each time. The Angle of repose in data set [2] was 39.0 degree. In data set [3], the Uniformity coefficient is given as 3.36. For the same compound, the “Water content (hydrated water)” value in data set [4] is recorded as “did not contain hydrated water”.

In the case of `O=C(O)C[C@](O)(Cc1ccc(O)cc1)C(=O)O` [Methanol solvate crystal, (R)-2-hydroxy-2-[(4-hydroxyphenyl)methyl]butanedioic acid], the Methanol content in data set [1] and in data set [1] (listed as methanol solvate crystal of eucomic acid) was 28.1 wt % in each case. Also, in data set [5], the “Methanol content in the crystal except for the methanol adhering to the crystal surface” value was 9.0 wt %. This compound came in with an Angle of repose in data set [2] of 45.7 degree. The Uniformity coefficient in data set [3] was found to be 4.25.

These data come from patent publication US11365170B2, “Non-solvate crystal of eucomic acid and method for producing same” (KYOWA HAKKO BIO CO., LTD., priority 2018, dated 2022).
